Where a name gives a salt, the structure may show the parent alone. Read-outs that look alike come from different tables or passages of the source.
Columns and labels:
[1] = target: T1, Recombinant human TYK2 catalytic domain (amino acids 871-1187) (Homo sapiens, UniProt P29597); assay: TYK2 radioactive assay polyGT substrate; type: biochemical; further: 0.1 µM ATP
T1 construct: catalytic domain (amino acids 871-1187)
T1 sequence (P29597 871-1187): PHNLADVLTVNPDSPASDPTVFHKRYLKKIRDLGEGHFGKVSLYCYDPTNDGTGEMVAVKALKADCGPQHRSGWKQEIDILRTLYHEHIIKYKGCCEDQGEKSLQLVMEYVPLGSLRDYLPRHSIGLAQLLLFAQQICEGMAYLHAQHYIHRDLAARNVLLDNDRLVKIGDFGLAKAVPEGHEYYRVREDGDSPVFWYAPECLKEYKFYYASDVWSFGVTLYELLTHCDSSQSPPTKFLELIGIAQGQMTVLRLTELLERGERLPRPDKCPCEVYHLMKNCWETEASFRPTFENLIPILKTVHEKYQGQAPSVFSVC
In short: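 Reaction at 30° C. for 120 min, ended with 150 mM phosphoric acid, washed, counted; percent inhibition scaled between vehicle and 10 μM staurosporine cpm.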

[2] = tested on: IFNα activation of STAT1 in PBMC; assay: IFNα activation of STAT1 in PBMC; type: cell-based; conditions: Homo sapiens
In short: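 Human PBMC, with red cells lysed by NH4Cl, were pre-treated with compound for 30 min at 37 °C and 5% CO2. They were then stimulated for 30 min with recombinant human IFNα at 5 ng/mL final.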

[3] = tested on: IL-12 activation of STAT4 in NK-92 cells; assay: IL-12 activation of STAT4 in NK-92 cells using MSD as readout; type: cell-based; conditions: Homo sapiens
Description: IL-2 is added freshly to the medium with each medium refreshment step. Cells are cultured in a humidified incubator at 37° C. 5% CO2.
NK-92 cells are pre-incubated with test compounds or vehicle for 30 min at 37° C. 5% CO2. […] NK-92 cells are triggered with rhIL-12 for 45 min at 37° C. 5% CO2.
After 45 min of cytokine stimulation the cells are lysed by addition of 50 μL ice-cold lysis buffer (supplemented with the MSD kit). Plates are frozen at −80° C. for minimal 1 hour to lyse the cells completely. After thawing the levels of phospho-STAT4 are quantified using the Phospho-STAT4 (Tyr693) kit (MSD, Catalogue number K150PAD-2) according to the manufacturer's instructions. Electroluminescent signal is measured on the MSD reader.
The percentage inhibition is calculated as: […]
RLU (trigger/veh): Relative lumescent signal determined in presence of vehicle and trigger
RLU (test compound): Relative luminescent signal determined in presence of test compounds)
PIN values are plotted for compounds tested in dose-response and IC50 values are derived using LIMS Software applying non-linear regression (sigmoidal) curve fitting. The data are expressed as the average IC50 from different experiments.

[4] = target: T2, Recombinant human JAK1 (catalytic domain, amino acids 866-1154) (Homo sapiens, UniProt P23458); assay: JAK1 inhibition assay; type: biochemical; conditions: read-out: JAK1 potency IC50
T2 construct: catalytic domain, amino acids 866-1154

[5] = target: T3, Recombinant human JAK2 (catalytic domain, amino acids 808-1132) (Homo sapiens, UniProt O60674); assay: JAK2 inhibition assay; type: biochemical; conditions: read-out: JAK2 potency IC50; further: 0.7 µM ATP
T3 construct: catalytic domain, amino acids 808-1132

[6] = target: Recombinant human JAK3 catalytic domain (amino acids 781-1124) (Homo sapiens, UniProt P52333); assay: JAK3 inhibition assay; type: biochemical
In short: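 Radiometric kinase reaction run 45 min at 30° C., stopped with phosphoric acid; activity as vehicle cpm minus 10 μM staurosporine cpm.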

[7] = tested on: IL-12 activation of STAT4 in NK-92 cells; assay: IL-12 activation of STAT4 in NK-92 cells using AphaLISA SureFire technology; type: cell-based; conditions: Homo sapiens
In short: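 NK-92 cells, starved of rhIL-2 overnight, were stimulated with rhIL-12 for 30 min at 37 °C with test compounds, then lysed. Phospho-STAT4 (Tyr693) was read by AlphaLISA SureFire. Percent inhibition versus the vehicle-plus-trigger signal was fitted by sigmoidal nonlinear regression to give IC50, averaged over experiments.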

[8] = IFNα activation of STAT1 in PBMC, average IC50, read-out: IFNα signaling inhibitory potency IC50
[9] = NK92, NK-92 cells, rhIL-12 25 ng/mL, MSD readout, read-out: IL12 pSTAT4 IC50
[10] = NK92, IL-12 activation of STAT4 in NK-92 cells, AlphaLISA SureFire, average IC50, read-out: IL12 pSTAT4 IC50

T2 sequence (P23458 866-1154): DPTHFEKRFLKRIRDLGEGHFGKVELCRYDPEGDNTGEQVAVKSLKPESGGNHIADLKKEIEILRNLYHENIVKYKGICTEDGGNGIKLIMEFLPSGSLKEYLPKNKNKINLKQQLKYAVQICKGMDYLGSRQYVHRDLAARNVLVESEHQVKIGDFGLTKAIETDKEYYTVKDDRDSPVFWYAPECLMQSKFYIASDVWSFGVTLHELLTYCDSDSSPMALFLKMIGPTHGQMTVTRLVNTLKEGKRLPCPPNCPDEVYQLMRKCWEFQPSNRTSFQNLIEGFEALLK
T3 sequence (O60674 808-1132): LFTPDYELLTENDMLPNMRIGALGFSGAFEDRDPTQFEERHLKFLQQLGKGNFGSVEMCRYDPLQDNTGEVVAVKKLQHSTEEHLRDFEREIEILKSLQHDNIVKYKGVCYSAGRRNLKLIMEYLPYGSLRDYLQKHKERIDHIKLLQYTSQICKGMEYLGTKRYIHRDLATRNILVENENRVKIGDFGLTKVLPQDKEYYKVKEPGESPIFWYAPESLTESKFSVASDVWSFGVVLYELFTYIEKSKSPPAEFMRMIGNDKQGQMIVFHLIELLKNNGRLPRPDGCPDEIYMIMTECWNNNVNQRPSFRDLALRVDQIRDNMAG
Recombinant human JAK3 catalytic domain (amino acids 781-1124), sequence (P52333 781-1124): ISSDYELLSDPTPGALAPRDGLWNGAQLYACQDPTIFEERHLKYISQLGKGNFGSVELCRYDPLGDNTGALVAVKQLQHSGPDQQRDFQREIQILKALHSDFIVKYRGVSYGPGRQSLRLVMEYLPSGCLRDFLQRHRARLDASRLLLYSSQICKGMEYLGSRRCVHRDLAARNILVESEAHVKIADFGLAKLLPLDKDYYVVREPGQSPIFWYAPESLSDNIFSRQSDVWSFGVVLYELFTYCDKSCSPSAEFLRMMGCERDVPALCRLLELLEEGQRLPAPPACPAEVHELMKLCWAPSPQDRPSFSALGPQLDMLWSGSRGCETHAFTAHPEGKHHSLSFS

IC50 [1]	IC50 [3, 9]	IC50 [4]	IC50 [5]	IC50 [6]	IC50 [7, 10]	Compound	IC50 [2, 8]	IC50 ([2]; PBMC, read-out: IFNα signaling inhibitory potency IC50 (nM))	IC50 ([7]; NK92, read-out: IL12 pSTAT4 IC50 (nM))	IC50 ([3]; NK92, read-out: IL12 pSTAT4 IC50)
9.72 nM	1150 nM	–	–	–	–	Cc1cc(C#N)ncc1Oc1cc(Nc2ccc(S(C)(=O)=O)cc2)c2ncn(C)c2n1 [Compound 60, 4-methyl-5-[3-methyl-7-(4-methylsulfonylanilino)imidazo[4,5-b]pyridin-5-yl]oxy-pyridine-2-carbonitrile]	73 nM	–	–	–
1.81 nM	377 nM	27.2 nM	4.75 nM	143 nM	–	CN(c1cc(Nc2cc(N)ncn2)c2ncn(C)c2n1)C1CCOCC1(C)C (centres unmarked) [Compound 11, N7-(6-Amino-pyrimidin-4-yl)-N5-(3,3-dimethyl-tetrahydro-pyran-4-yl)-3,N5-dimethyl-3H-imidazo[4,5-b]pyridine-5,7-diamine]	–	–	–	–
–	–	–	–	–	–	Cc1cc(S(C)(=O)=O)cc(F)c1Oc1cc(Nc2cc(N)ncn2)c2ncn(C)c2n1 [Compound 2, N-[5-(2-Fluoro-4-methanesulfonyl-6-methyl-phenoxy)-3-methyl-3H-imidazo[4,5-b]pyridin-7-yl]-pyrimidine-4,6-diamine]	–	87 nM	73.5 nM	259 nM
10.2 nM	905 nM	64.6 nM	14.6 nM	237 nM	–	C[C@H]1COCC[C@@H]1N(C)c1cc(Nc2cc(N)ncn2)c2ncn(C)c2n1 [Compound 17, N7-(6-Amino-pyrimidin-4-yl)-3,N5-dimethyl-N5-((3R,4S)-3-methyl-tetrahydro-pyran-4-yl)-3H-imidazo[4,5-b]pyridine-5,7-diamine]	–	–	–	–
45.4 nM	7460 nM	–	–	–	–	Cc1cc(C#N)ncc1Oc1cc(Nc2ccc(CN)cc2)c2ncn(C)c2n1 [Compound 57, 5-[7-[4-(aminomethyl)anilino]-3-methyl-imidazo[4,5-b]pyridin-5-yl]oxy-4-methyl-pyridine-2-carbonitrile formate salt]	405 nM	–	–	–
74 nM	1530 nM	338 nM	873 nM	–	–	CCNC(=O)c1ccc(Nc2cc(Oc3cnc(C#N)cc3C)nc3c2ncn3C)cn1 [Compound 26, 5-[5-(6-Cyano-4-methyl-pyridin-3-yloxy)-3-methyl-3H-imidazo[4,5-b]pyridin-7-ylamino]-pyridine-2-carboxylic acid ethylamide]	–	–	–	–
9.01 nM	3370 nM	–	–	–	–	Cc1cc(C#N)ncc1Oc1cc(Nc2ccc(C(=O)NCC(C)O)cn2)c2ncn(C)c2n1 (centres unmarked) [Compound 24, 6-[5-(6-Cyano-4-methyl-pyridin-3-yloxy)-3-methyl-3H-imidazo[4,5-b]pyridin-7-ylamino]-N-(2-hydroxy-propyl)-nicotinamide]	151 nM	–	–	–
11.7 nM	1650 nM	–	–	–	205 nM	Cc1cc(C#N)ncc1Nc1cc(Nc2ccc(C(=O)N(C)C)cc2)c2ncn(C)c2n1 [Compound 66, 4-[[5-[(6-cyano-4-methyl-3-pyridyl)amino]-3-methyl-imidazo[4,5-b]pyridin-7-yl]amino]-N,N-dimethyl-benzamide]	138 nM	–	–	–
3.44 nM	199 nM	–	–	–	158 nM	Cc1cc(C#N)ncc1Oc1cc(Nc2ccc(C(=O)N(C)C)nn2)c2ncn(C)c2n1 [Compound 73, 6-[[5-[(6-cyano-4-methyl-3-pyridyl)oxy]-3-methyl-imidazo[4,5-b]pyridin-7-yl]amino]-N,N-dimethyl-pyridazine-3-carboxamide]	81 nM	–	–	–
1.41 nM	27.7 nM	–	–	–	57.2 nM	CC(Oc1cc(Nc2cc(N)ncn2)c2ncn(C)c2n1)C1CC1 (centres unmarked) [Compound 72, N4-[5-(1-cyclopropylethoxy)-3-methyl-imidazo[4,5-b]pyridin-7-yl]pyrimidine-4,6-diamine]	124 nM	–	–	–
12.7 nM	–	110 nM	78 nM	2160 nM	274 nM	Cc1cc(C#N)nnc1Oc1cc(Nc2cc(N)ncn2)c2ncn(C)c2n1 [Compound 3, 6-[7-(6-Amino-pyrimidin-4-ylamino)-3-methyl-3H-imidazo[4,5-b]pyridin-5-yloxy]-5-methyl-pyridazine-3-carbonitrile]	119 nM	–	–	–
4.81 nM	–	30.4 nM	10.5 nM	479 nM	154 nM	Cc1cc(C#N)ncc1Oc1cc(Nc2ccc(N3CCOC[C@@H]3C)cn2)c2ncn(C)c2n1 [Compound 85, 4-methyl-5-[3-methyl-7-[[5-[(3S)-3-methylmorpholin-4-yl]pyridin-2-yl]amino]imidazo[4,5-b]pyridin-5-yl]oxypyridine-2-carbonitrile]	115 nM	–	–	–
10.3 nM	–	60.3 nM	58.4 nM	1110 nM	221 nM	Cc1cc(C#N)ncc1Oc1cc(Nc2cnn(C)c2)c2ncn(C)c2n1 [Compound 61, 4-methyl-5-[3-methyl-7-[(1-methylpyrazol-4-yl)amino]imidazo[4,5-b]pyridin-5-yl]oxy-pyridine-2-carbonitrile]	112 nM	–	–	–
8.01 nM	–	187 nM	43.8 nM	1050 nM	110 nM	COCCNc1cc(Nc2cc(Oc3cnc(C#N)cc3C)nc3c2ncn3C)ncn1 [Compound 31, 5-{7-[6-(2-Methoxy-ethylamino)-pyrimidin-4-ylamino]-3-methyl-3H-imidazo[4,5-b]pyridin-5-yloxy}-4-methyl-pyridine-2-carbonitrile]	94 nM	–	–	–
8.47 nM	–	205 nM	32.3 nM	2030 nM	181 nM	COCC1CN(C(=O)c2ccc(Nc3cc(Oc4cnc(C#N)cc4C)nc4c3ncn4C)nn2)C1 [Compound 117, 5-[7-[[6-[3-(methoxymethyl)azetidine-1-carbonyl]pyridazin-3-yl]amino]-3-methyl-imidazo[4,5-b]pyridin-5-yl]oxy-4-methyl-pyridine-2-carbonitrile]	148 nM	–	–	–
9.06 nM	–	197 nM	22.9 nM	446 nM	506 nM	Cc1cc(C#N)ncc1Oc1cc(Nc2ccc(OC3CCN(C)CC3)cn2)c2ncn(C)c2n1 [Compound 86, 4-methyl-5-[3-methyl-7-[[5-(1-methylpiperidin-4-yl)oxypyridin-2-yl]amino]imidazo[4,5-b]pyridin-5-yl]oxypyridine-2-carbonitrile]	121 nM	–	–	–
6.27 nM	–	77.2 nM	22.2 nM	257 nM	241 nM	Cc1cc(C#N)ncc1Oc1cc(Nc2cnn(CCN3CCOCC3)c2)c2ncn(C)c2n1 [Compound 186, 4-methyl-5-[3-methyl-7-[[1-(2-morpholinoethyl)pyrazol-4-yl]amino]imidazo[4,5-b]pyridin-5-yl]oxy-pyridine-2-carbonitrile]	229 nM	–	–	–
4.37 nM	–	92.3 nM	16.4 nM	784 nM	198 nM	COCCCN(c1cc(Nc2cc(N)ncn2)c2ncn(C)c2n1)c1cnc(C#N)cc1C [Compound 4, 5-[[7-(6-Amino-pyrimidin-4-ylamino)-3-methyl-3H-imidazo[4,5-b]pyridin-5-yl]-(3-methoxy-propyl)-amino]-4-methyl-pyridine-2-carbonitrile]	91 nM	–	–	–
